In US20230374035A1, “RAS INHIBITORS” (Revolution Medicines, Inc., priority 2019, published 2023):
Read-outs that look alike come from different tables or passages of the source.

Assays:
[1] = test system: NCI-H358 cells (K-Ras G12C); assay: Potency assay: pERK; type: cell-based; conditions: Homo sapiens
Experimental: The purpose of this assay is to measure the ability of test compounds to inhibit K-Ras in cells. […] This procedure measures a decrease in cellular pERK in response to test compounds. The procedure described below in NCI-H358 cells is applicable to K-Ras G12C.
NCI-H358 cells were grown and maintained using media and procedures recommended by the ATCC. On the day prior to compound addition, cells were plated in 384-well cell culture plates (40 μl/well) and grown overnight in a 37° C., 5% CO2 incubator. Test compounds were prepared in 10, 3-fold dilutions in DMSO, with a high concentration of 10 mM. On day of assay, 40 nl of test compound was added to each well of cell culture plate using an Echo550 liquid handler (LabCyte®). Concentrations of test compound were tested in duplicate. […]
In some experiments, cellular pERK level was determined using the AlphaLISA SureFire Ultra p-ERK1/2 Assay Kit (PerkinElmer). […] Signal was read on an Envision plate reader (PerkinElmer) using standard AlphaLISA settings. […] Signal was plotted vs. the decadal logarithm of compound concentration, and IC50 was determined by fitting a 4-parameter sigmoidal concentration response model.
In other experiments, cellular pERK was determined by In-Cell Western. […] Signal was plotted vs. the decadal logarithm of compound concentration, and IC50 was determined by fitting a 4-parameter sigmoidal concentration response model.

AsPC-1 (K-Ras G12D) = assay: Potency assay: pERK; type: cell-based; conditions: Homo sapiens, ASPC1
Capan-1 (K-Ras G12V) = assay: Potency assay: pERK; type: cell-based; conditions: Homo sapiens
KRAS G12V = KRAS G12V (Homo sapiens, UniProt P01116+P62937, G12V); assay: Disruption of BRAF RBD interaction with K-Ras (FRET / MOA assay); type: biochemical; conditions: read-out: FRET G12V IC50
Chain of KRAS G12V (P01116 1-188 isoform P01116-2 G12V): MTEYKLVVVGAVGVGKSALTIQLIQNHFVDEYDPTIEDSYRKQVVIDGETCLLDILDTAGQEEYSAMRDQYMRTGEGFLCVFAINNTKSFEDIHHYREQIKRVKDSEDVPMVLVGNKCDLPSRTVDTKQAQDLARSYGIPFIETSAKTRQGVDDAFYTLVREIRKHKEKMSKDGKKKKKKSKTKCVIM
Chain of KRAS G12V (P62937 whole entry): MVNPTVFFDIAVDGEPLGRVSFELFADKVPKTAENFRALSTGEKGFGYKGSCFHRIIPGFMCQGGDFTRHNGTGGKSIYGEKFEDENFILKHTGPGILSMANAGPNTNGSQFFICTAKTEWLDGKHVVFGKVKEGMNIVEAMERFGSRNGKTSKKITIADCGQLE
Experimental: (§1) Compound is present in plate wells as a 10-point 3-fold dilution series starting at a final concentration of 30 μM. […] Compounds that facilitate disruption of a Ras:RAF complex are identified as those eliciting a decrease in the TR-FRET ratio relative to DMSO control wells.
(§2) Note—The following protocol describes a procedure for monitoring disruption of K-Ras G12C (GMP-PNP) binding to BRAF^RBD by a compound of the invention. This protocol may also be executed substituting other Ras proteins or nucleotides.
(§3) The purpose of this biochemical assay was to measure the ability of test compounds to facilitate ternary complex formation between a nucleotide-loaded K-Ras isoform and Cyclophilin A; the resulting ternary complex disrupts binding to a BRAF^RBD construct, inhibiting K-Ras signaling through a RAF effector. Data is reported as IC50 values.
(§4) Compound was present in plate wells as a 10-point 3-fold dilution series starting at a final concentration of 30 μM. […] Compounds that facilitate disruption of a K-Ras:RAF complex were identified as those eliciting a decrease in the TR-FRET ratio relative to DMSO control wells.

KRAS G12C = KRAS G12C (Homo sapiens, UniProt P01116+P62937, G12C); assay: as above; type: biochemical
Chain of KRAS G12C (P01116 1-188 isoform P01116-2 G12C): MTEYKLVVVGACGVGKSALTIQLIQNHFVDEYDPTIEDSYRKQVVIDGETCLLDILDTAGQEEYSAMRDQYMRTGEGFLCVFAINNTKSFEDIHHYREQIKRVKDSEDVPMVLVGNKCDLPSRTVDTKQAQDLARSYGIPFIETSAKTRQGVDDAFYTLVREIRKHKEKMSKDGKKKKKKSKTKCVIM
Chain of KRAS G12C (P62937 whole entry): as the sequence (P62937 whole entry) above
Experimental: as §1, §2, §3, §4

KRAS G13C = KRAS G13C (Homo sapiens, UniProt P01116+P62937, G13C); assay: as above; type: biochemical
Chain of KRAS G13C (P01116 1-188 isoform P01116-2 G13C): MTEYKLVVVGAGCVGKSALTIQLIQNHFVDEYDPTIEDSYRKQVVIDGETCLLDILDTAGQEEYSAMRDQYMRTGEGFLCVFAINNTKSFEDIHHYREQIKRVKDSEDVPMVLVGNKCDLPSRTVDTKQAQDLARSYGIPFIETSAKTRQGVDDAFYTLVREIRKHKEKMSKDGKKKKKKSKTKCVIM
Chain of KRAS G13C (P62937 whole entry): as the sequence (P62937 whole entry) above
Experimental: as §1, §2, §3, §4

KRAS G12D = KRAS G12D (Homo sapiens, UniProt P01116+P62937, G12D); assay: as above; type: biochemical
Chain of KRAS G12D (P01116 1-188 isoform P01116-2 G12D): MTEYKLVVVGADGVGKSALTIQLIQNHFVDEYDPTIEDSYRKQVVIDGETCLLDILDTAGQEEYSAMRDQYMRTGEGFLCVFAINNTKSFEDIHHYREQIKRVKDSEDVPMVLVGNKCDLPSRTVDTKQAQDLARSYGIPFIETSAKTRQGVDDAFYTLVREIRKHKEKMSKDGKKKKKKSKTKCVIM
Chain of KRAS G12D (P62937 whole entry): as the sequence (P62937 whole entry) above
Experimental: as §1, §2, §3, §4

KRAS G13D = KRAS G13D (Homo sapiens, UniProt P01116+P62937, G13D); assay: as above; type: biochemical
Chain of KRAS G13D (P01116 1-188 isoform P01116-2 G13D): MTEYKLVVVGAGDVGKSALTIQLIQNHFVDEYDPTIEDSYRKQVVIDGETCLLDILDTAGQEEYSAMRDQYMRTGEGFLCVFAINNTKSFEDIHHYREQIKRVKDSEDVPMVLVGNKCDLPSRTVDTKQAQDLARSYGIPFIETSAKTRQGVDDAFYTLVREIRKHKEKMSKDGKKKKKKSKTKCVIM
Chain of KRAS G13D (P62937 whole entry): as the sequence (P62937 whole entry) above
Experimental: as §1, §2, §3, §4

NRAS G12C = NRAS G12C (Homo sapiens, UniProt P01111+P62937, G12C); assay: Disruption of BRAF RBD interaction with Ras (FRET / MOA assay); type: biochemical
Chain of NRAS G12C (P01111 whole entry G12C): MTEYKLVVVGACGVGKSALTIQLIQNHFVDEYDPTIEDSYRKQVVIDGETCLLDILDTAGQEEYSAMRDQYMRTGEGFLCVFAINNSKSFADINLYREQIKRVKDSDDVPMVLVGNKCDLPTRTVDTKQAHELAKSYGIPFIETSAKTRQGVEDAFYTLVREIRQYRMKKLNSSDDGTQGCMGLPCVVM
Chain of NRAS G12C (P62937 whole entry): as the sequence (P62937 whole entry) above
How it was run: (§5)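 TR-FRET readout: a drop in ratio versus DMSO wells marks disruption of the Ras:BRAF^RBD complex, reported as IC50. Compound acts via a Cyclophilin A ternary complex with nucleotide-loaded Ras (e.g., GMP-PNP). Top final concentration was 30 μM, 10 points, 3-fold steps.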

NRAS Q61K = NRAS Q61K (Homo sapiens, UniProt P01111+P62937, Q61K); assay: as above; type: biochemical; conditions: read-out: NRAS Q61K FRET data IC50
Chain of NRAS Q61K (P01111 whole entry Q61K): as the sequence (P01111 whole entry G12C) above, with C12G, Q61K counted along it
Chain of NRAS Q61K (P62937 whole entry): as the sequence (P62937 whole entry) above
How it was run: as §5

NRAS Q61R = NRAS Q61R (Homo sapiens, UniProt P01111+P62937, Q61R); assay: as above; type: biochemical; conditions: read-out: NRAS Q61R FRET data IC50
Chain of NRAS Q61R (P01111 whole entry Q61R): as the sequence (P01111 whole entry G12C) above, with C12G, Q61R counted along it
Chain of NRAS Q61R (P62937 whole entry): as the sequence (P62937 whole entry) above
How it was run: as §5

NRAS WT = NRAS WT (Homo sapiens, UniProt P01111+P62937); assay: as above; type: biochemical; conditions: read-out: NRAS WT FRET data IC50
Chain of NRAS WT (P01111 whole entry): as the sequence (P01111 whole entry G12C) above, with C12G counted along it
Chain of NRAS WT (P62937 whole entry): as the sequence (P62937 whole entry) above
How it was run: as §5

KRAS G12S = KRAS G12S (Homo sapiens, UniProt P01116+P62937, G12S); assay: Disruption of BRAF RBD interaction with K-Ras (FRET / MOA assay); type: biochemical
Chain of KRAS G12S (P01116 1-188 isoform P01116-2 G12S): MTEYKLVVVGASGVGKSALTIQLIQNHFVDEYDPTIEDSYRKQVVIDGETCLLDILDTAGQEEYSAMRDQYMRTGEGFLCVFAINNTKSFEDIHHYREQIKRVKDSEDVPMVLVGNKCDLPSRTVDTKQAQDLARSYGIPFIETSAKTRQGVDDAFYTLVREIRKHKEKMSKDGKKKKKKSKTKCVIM
Chain of KRAS G12S (P62937 whole entry): as the sequence (P62937 whole entry) above
Experimental: as §1, §2, §3, §4

KRAS Q61H = KRAS Q61H (Homo sapiens, UniProt P01116+P62937, Q61H); assay: as above; type: biochemical; conditions: read-out: KRAS Q61H FRET data IC50
Chain of KRAS Q61H (P01116 1-188 isoform P01116-2 Q61H): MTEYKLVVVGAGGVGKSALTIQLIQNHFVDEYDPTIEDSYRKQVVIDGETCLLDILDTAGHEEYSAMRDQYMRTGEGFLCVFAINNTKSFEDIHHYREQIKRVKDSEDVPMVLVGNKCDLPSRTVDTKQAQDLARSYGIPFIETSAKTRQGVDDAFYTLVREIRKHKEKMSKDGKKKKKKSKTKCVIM
Chain of KRAS Q61H (P62937 whole entry): as the sequence (P62937 whole entry) above
Experimental: as §1, §2, §3, §4

NCI-H358 (K-Ras G12C) = assay: CellTiter-Glo Cell Viability Assay; type: cell-based; conditions: Homo sapiens, NCI-H358, 120 h; H358, 5-day treatment

| EC50 [1] | EC50 (AsPC-1 (K-Ras G12D)) | EC50 (Capan-1 (K-Ras G12V)) | IC50 (KRAS G12V) | IC50 (KRAS G12C; read-out: FRET G12C IC50) | IC50 (KRAS G13C; read-out: FRET G13C IC50) | IC50 (KRAS G12D) | IC50 (KRAS G13D) | IC50 (NRAS G12C) | IC50 (NRAS Q61K) | IC50 (NRAS Q61R) | IC50 (NRAS WT) | IC50 (KRAS G12S) | IC50 (KRAS G12C; read-out: KRAS G12C FRET data IC50) | IC50 (KRAS G13C; read-out: KRAS G13C FRET data IC50) | IC50 (KRAS Q61H) | IC50 (NCI-H358 (K-Ras G12C)) | Structure (SMILES) |
| --- | --- | --- | --- | --- | --- | --- | --- | --- | --- | --- | --- | --- | --- | --- | --- | --- | --- |
| 334 nM | 468 nM | 413 nM | 3670 nM | 450 nM | 91 nM | 228 nM | 212 nM | – | – | – | – | – | – | – | – | – | CCn1c(-c2cnccc2COC)c2c3cc(ccc31)-c1cc(O)cc(c1)C[C@H](NC(=O)[C@H](C(C)C)N(C)C(=O)OC1CN(C)C1)C(=O)N1CCC[C@H](N1)C(=O)OCC(C)(C)C2 [Compound A74] |
| – | – | – | – | – | – | – | – | < 10 nM | 10 to 100 nM | 10 to 100 nM | < 10 nM | < 10 nM | < 10 nM | < 10 nM | < 10 nM | < 10 nM | CCn1c(-c2cccnc2[C@H](C)OC)c2c3cc(ccc31)-c1cc(O)cc(c1)C[C@H](NC(=O)[C@H](C(C)C)N(C)C(=O)[C@@H]1CCN(C(=O)OC)[C@@H]1c1ccccc1)C(=O)N1CCC[C@H](N1)C(=O)OCC(C)(C)C2 (atropisomer, axis not shown) [Compound A501] |
